Data taken from ChEMBL document CHEMBL3994639, “Identification of novel ROS inducer by merging the fragments of piperlongumine and dicoumarol” (Bioorg Med Chem Lett, 2017).
≈ marks a conversion by molar mass, not a printed value. Calls of active or inactive are those of the source. The calls are words filed in the database; no cut-off is given here.

Assays:
[1] = Permeability of the compound at pH 7.4; assay type: physicochemical; settings: not told, read-out: permeability
A549 [2] = test: Cytotoxicity against human A549 cells assessed as growth inhibition after 72 hrs by MTT assay; assay type: functional, cell-based; settings: A549, 72 h
MRC5 = test: Cytotoxicity against human MRC5 cells after 72 hrs by MTT assay; assay type: cell-based; settings: MRC5, 72 h
HCT-116 = test: Cytotoxicity against human HCT116 cells assessed as growth inhibition after 72 hrs by MTT assay; assay type: functional, cell-based; settings: HCT-116, 72 h
HepG2 = test: Cytotoxicity against human HepG2 cells assessed as growth inhibition after 72 hrs by MTT assay; assay type: functional, cell-based; settings: HepG2, 72 h
Mus musculus = test: Toxicity in human A549 cells xenografted athymic nude mouse assessed as body weight loss at 5 mg/kg, ip administered every other day for 21 days; assay type: organism-based; settings: in vivo, 504 h
A549 [3] = test: Induction of apoptosis in human A549 cells assessed as nuclei condensation after 24 hrs by DAPI staining based immunofluorescence microscopic analysis; assay type: functional, cell-based
[4] = Intrinsic solubility of the compound; assay type: physicochemical; settings: read-out: Intrinsic_solubility
A549 [5] = test: Antitumor activity in human A549 cells xenografted in athymic nude mouse assessed as tumor growth inhibition at 5 mg/kg, ip administered every other day for 21 days; assay type: functional; settings: 504 h, read-out: TGI
[6] = Lipophilicity, log D of compound at pH 7.4; assay type: physicochemical; settings: buffer

SMILES	Papp [1] [×10⁻⁶ cm/s]	IC50 (A549 [2]) [µM]	IC50 (MRC5) [µM]	IC50 (HCT-116) [µM]	IC50 (HepG2) [µM]	Activity (Mus musculus)	Activity (A549 [3])	solubility [4] [µg/mL]	inhibition in vivo at 5 mg/kg (A549 [5]) [%]	logD [6]
CC(C)NCC(O)COc1cccc2ccccc12 (configuration not stated) [PROPRANOLOL]	117									
O=C1C=CCCN1C(=O)/C=C/c1c(O)c2ccc(Cl)cc2oc1=O		6.5	19	12	15					
COc1ccc2oc(=O)c(/C=C/C(=O)N3CCC=CC3=O)c(O)c2c1		9.8	53	10	7.1					
COc1cc2c(O)c(/C=C/C(=O)N3CCC=CC3=O)c(=O)oc2c(OC)c1OC	20.2	4.2	57	3.2	5.7	Non-Toxic	Active	316 (≈ 787 µM)	48.5	
CC(C(=O)O)c1cccc(C(=O)c2ccccc2)c1 (configuration not stated) [KETOPROFEN]	1.98									
O=C1CCCCN1C(=O)CCc1c(O)c2ccccc2oc1=O		> 90	58	> 90	> 90					
Cc1cc2oc(=O)c(/C=C/C(=O)N3CCC=CC3=O)c(O)c2cc1C		15	35	5.1	7.8					
COc1cc(/C=C/C(=O)N2CCC=CC2=O)cc(OC)c1OC [PIPLARTINE]	24.6	10	37	9.2	8.9			0.75 (≈ 2.36 µM)	41.2	2.84
O=C1C=CCCN1C(=O)/C=C/c1c(O)c2ccccc2oc1=O		12	22	15	6.7					
COc1ccc2c(O)c(/C=C/C(=O)N3CCC=CC3=O)c(=O)oc2c1		11	31	18	12					
O=C1C=CCCN1C(=O)/C=C/c1c(O)c2ccc(F)cc2oc1=O		18	8.9	11	9.7					
